Data taken from patent publication US12234233B2, “Crystal form of phosphodiesterase inhibitor, preparation method therefor and use thereof” (TRANSTHERA SCIENCES (NANJING), INC., priority 2019, dated 2025).

Columns and labels:
[1] = Solubility in test solutions at different pHs and water; format: physicochemical; conditions: 37° C.
Experimental: Test substances: the compound of formula (I) was prepared by example 1 of the present invention, the crystal form I was prepared by example 2 of the present invention, the crystal form II was prepared by example 16 of the present invention, the crystal form III was prepared by example 20 of the present invention, the crystal form IV was prepared by example 24 of the present invention, the crystal form V was prepared by example 25 of the present invention, the crystal form VI was prepared by example 27 of the present invention, and the crystal form VII was prepared by example 31 of the present invention.
Preparation of Buffered Salt Solutions at Different pHs:
hydrochloric acid solution at pH 1.0:9 ml of hydrochloric acid was pipetted, and water was added for dilution to 1000 ml; the mixture was mixed homogeneously to obtain a hydrochloric acid solution at pH 1.03. Phosphate buffered solution at pH 4.5:1.56 g of sodium dihydrogen phosphate dihydrate was weighed, and 200 ml of water was added to obtain a phosphate buffered solution at pH 4.50. Phosphate buffered solution at pH 6.8:1.56 g of sodium dihydrogen phosphate dihydrate was weighed, and 200 ml of water was added; and the mixture was adjusted to pH 6.80 with 1 mol/L sodium hydroxide solution.
preparation of buffered solutions at different pHs (samples for determining solubility):
50 mg of each test substance was weighed, and 5 ml of the hydrochloric acid solution (pH 1.0) was added; and the mixture was mixed homogeneously with shaking. About 2.5 mg of each test substance was weighed, and 5 ml of the phosphate buffered solution (pH 4.5), 5 ml of the phosphate buffered solution (pH 6.8), and 5 ml of ultrapure water were added, respectively; the mixture was mixed homogeneously with shaking, and then placed in a 37° C. water bath shaker for shaking; the samples were collected at 24 hours and subjected to centrifugation; and the supernatant was taken and directly injected (if the solubility was high, the supernatant was diluted with a 0.1 mol/L hydrochloric acid solution to an appropriate multiple and then injected).
The solubility of the samples was quantitatively calculated according to the single-point external standard method.

[2] = Stability test of crystal form I (influencing factors); format: physicochemical
Experimental: Test substances: the crystal form I was prepared by example 2 of the present invention.
Method: the appropriate amount of crystal form I samples were taken and placed openly at 60° C. and RH 92.5% under light; and the samples were collected on day 5, day 10, and day 30 to investigate changes in the trait, content, and moisture of the samples.

[3] = Placed openly at 60° C. for 5 days
[4] = Placed openly at 60° C. for 10 days
[5] = Placed openly at 60° C. for 30 days
[6] = Placed openly at RH 92.5% for 5 days
[7] = Placed openly at RH 92.5% for 10 days
[8] = Placed openly at RH 92.5% for 30 days
[9] = Placed openly under light for 5 days
[10] = Placed openly under light for 10 days
[11] = placed openly under light for 30 days

## CCc1cc2c(N3CCC(C)(OC)CC3)c(C#N)c(=O)[nH]c2cn1 [Crystal form I, 6-ethyl-4-(4-methoxy-4-methylpiperidin-1-yl)-2-oxo-1,2-dihydro-1,7-diazanaphthal ene-3-carbonitrile]
[1]; Water
  24-hour solubility: 110 µg/mL
[1]; pH 1.0 hydrochloric acid solution
  24-hour solubility: 8600 µg/mL
[1]; pH 4.5 phosphate buffered solution
  24-hour solubility: 130 µg/mL
[1]; pH 6.8 phosphate buffered solution
  24-hour solubility: 110 µg/mL
[2]; 0 day
  Content: 99.7%
  Moisture: 0.08%
  Trait: Yellow powder
[2]; [3]
  Content: 99.8%
  Moisture: 0.06%
  Trait: Yellow powder
[2]; [4]
  Content: 99.8%
  Moisture: 0.10%
  Trait: Yellow powder
[2]; [5]
  Content: 100.1%
  Moisture: 0.12%
  Trait: Yellow powder
[2]; [6]
  Content: 99.7%
  Moisture: 0.04%
  Trait: Yellow powder
[2]; [7]
  Content: 100.3%
  Moisture: 0.09%
  Trait: Yellow powder
[2]; [8]
  Content: 100.5%
  Moisture: 0.09%
  Trait: Yellow powder
[2]; [9]
  Content: 99.7%
  Moisture: 0.06%
  Trait: Yellow powder
[2]; [10]
  Content: 99.3%
  Moisture: 0.13%
  Trait: Yellow powder
[2]; [11]
  Content: 100.0%
  Moisture: 0.09%
  Trait: Yellow powder
